Source: patent publication US20240325389A1, “NEW THERAPEUTIC TARGETS WITH AN ANTI-INFLAMMATORY AND ANTI-INTERFERON EFFECT” (priority 2020, published 2024)
Read-outs that look alike come from different tables or passages of the source.

Experiments:
[1] = tested on: neurones infected by the prions; type: cell-based
[2] = tested on: peripheral blood mononuclear cells (PBMCs) of healthy donors; experiment: Cytokine and interferon secretion by PBMCs after TLR7/8 (R848) stimulation, LegendPlex; type: cell-based, human; settings: for production and secretion of pro-inflammatory cytokines, such as IL-6, IL-1p and the interferons induced by the TLR7/8 stimulation / production of TNFα induced by the TLR7/8 stimulation: human PBMCs incubated with inhibitor before R848
[3] = tested on: THP1-Dual; experiment: mRNA encoding TNFα, IL6 and MCP1 in LPS-activated THP1-Dual monocytes, RT-qPCR; type: cell-based, human; settings: inhibitor 1 h before LPS 100 ng/ml
[4] = tested on: DBA/1J mice; settings: for total average arthritis scores (histopathology): with respect to the control vehicle
[5] = tested on: monocytes of patients suffering from juvenile idiopathic arthritis; experiment: Spontaneous TNFα production by monocytes of juvenile idiopathic arthritis patients, SIMOA; type: cell-based, human; settings: monocytes incubated with inhibitor for 24 h, no stimulation
[6] = tested on: monocytes of healthy donors; experiment: Intracellular TNFα production in monocytes after TLR2 (LTA) stimulation, flow cytometry; type: cell-based, human; settings: inhibitor 1 h before LTA 1 μg/ml (TLR2), 16 h
[7] = tested on: HEK293; experiment: Interferon production by cGAMP-stimulated HEK293 non-immune cells (STING-37), luciferase; settings: inhibitor at 1 μM, cGAMP 3 μg/ml, 24 h
[8] = tested on: plasmacytoid dendritic cells (pDC) of healthy donors; experiment: Intracellular IFNα and TNFα in plasmacytoid dendritic cells in response to HIV, flow cytometry; type: cell-based, human; settings: inhibitor 1 h before AT-2-inactivated HIV-1MN, 16 h
[9] = tested on: B lymphocytes; experiment: Activation of B lymphocytes by CpG-A (CD69), flow cytometry; type: cell-based, human; settings: inhibitor 1 h at 1 μM, then CpG-A 1 μg/ml (TLR9) 24 h
[10] = tested on: peripheral blood mononuclear cells (PBMCs) of healthy donors; experiment: Test for toxicity of the compounds on PBMCs (CellTiter-Glo, ATP); type: cell-based, human; settings: 24 h of cell culture
Procedure: Test for toxicity of the compounds on the peripheral blood mononuclear cells (PBMCs).
After 24 h of cell culture, the cell viability was determined using the CellTiter-Glo reagent (Promega), which evaluates the amount of ATP by luminescence using the EnSpire.

[11] = tested on: monocytes of healthy donors; experiment: Intracellular TNFα production in monocytes after TLR7/8 (R848) stimulation, flow cytometry; type: cell-based, human; settings: for production of inflammatory cytokines: PBMCs and purified monocytes of healthy donors, Toll-like receptor 7/8 (R848); for intracellular production of inflammatory cytokines (TNFα): monocytes, inhibitor 1 h before R848 5 μg/ml (TLR7/8), 16 h
[12] = tested on: 1C11^5-HT serotonergic neurons; experiment: mRNA encoding TNFα, IL6 and MCP1 in LPS-activated 1C11^5-HT neurons, RT-qPCR; type: cell-based, Mus; settings: inhibitor 1 h before LPS 100 ng/ml
[13] = tested on: monocytes of healthy donors; experiment: Intracellular TNFα production in monocytes after TLR4 (LPS) stimulation, flow cytometry; type: cell-based, human; settings: for production of inflammatory cytokines: PBMCs and purified monocytes of healthy donors, Toll-like receptors 2/4 (lipoteichoic acid/LPS)
[14] = tested on: T lymphocytes; experiment: Activation of T lymphocytes by CD3/CD28 beads (CD69), flow cytometry; type: cell-based, human; settings: inhibitor 1 h at 1 and 5 μM, then CD3/CD28 beads 3 days
[15] = tested on: peripheral blood mononuclear cells (PBMCs) of healthy donors; experiment: Interferons secreted by R848-stimulated PBMCs, STING-37 reporter cell line; type: cell-based, human
[16] = tested on: THP1-Dual; experiment: Interferon response of cGAMP-stimulated THP1-Dual cells, luciferase
[17] = tested on: peripheral blood mononuclear cells (PBMCs); experiment: Interferon production by cGAMP-stimulated PBMCs, STING-37 reporter
[18] = tested on: monocytes of healthy donors; experiment: Intracellular IL-1β and TNFα in monocytes after inflammasome activation by uric acid crystals (MSU, gout model), flow cytometry; type: cell-based, human; settings: for production of inflammatory cytokines: monocytes of healthy donors, activation of the inflammasome by uric acid crystals
[19] = tested on: peripheral blood mononuclear cells (PBMCs) of healthy donors; experiment: Cytokine and interferon secretion by PBMCs after TLR4 (LPS) stimulation, LegendPlex; type: cell-based, human; settings: inhibitor 1 h before LPS 100 ng/ml (TLR4), 24 h
[20] = tested on: 1C11 neuroectodermal stem cells; experiment: mRNA encoding TNFα, IL6 and MCP1 in LPS-activated 1C11 stem cells, RT-qPCR; type: cell-based, Mus; settings: inhibitor 1 h before LPS 100 ng/ml
[21] = tested on: peripheral blood mononuclear cells (PBMCs) of healthy donors; experiment: Cytokine and interferon secretion by PBMCs in response to HIV, LegendPlex; type: cell-based, human; settings: inhibitor 1 h before AT-2-inactivated HIV-1MN, 24 h
[22] = 10 mg/kg daily oral, terminal plasma, ELISA
[23] = cGAMP stimulation, CellTiter Glo
[24] = monocytes, inhibitor 1 h before MSU 50 μg/ml, 16 h

Structure (SMILES): Cc1cncc2cccc(S(=O)(=O)N3CCCNCC3C)c12 (centres unmarked) [formula (VIII), dimethylfasudil]
- level of TNFα in the culture medium [1]: re-establishes
- production and secretion of pro-inflammatory cytokines, such as IL-6, IL-1p and the interferons induced by the TLR7/8 stimulation [2]: inhibits
- production of TNFα induced by the TLR7/8 stimulation [2]: inhibits

Structure (SMILES): O=C(Nc1cccc(Nc2ncc(Br)c(NCCc3c[nH]cn3)n2)c1)N1CCCC1 [BX912]
- concentration from which the transcription of the gene encoding TNFα, IL6 and MCP1 induced by LPS is reduced, according to a dosage effect [3]: ≥ 0.5 µM
- effect on progression and severity of the disease ([4]; 0.5 mg/kg daily oral (group 3)): no ameliorative effect
- total average arthritis scores (histopathology) ([4]; 0.5 mg/kg daily oral (group 3)): slight reductions
- rate of progression of the disease ([4]; 2 mg/kg daily oral (group 4)): significant reduction
- reduction in the (overall) severity of the disease at the end of the study ([4]; 2 mg/kg daily oral (group 4)): 56%
- reduction in the (overall) severity of the disease at the end of the study ([4]; 10 mg/kg daily oral): 82%
- progression of the disease ([4]; 10 mg/kg daily oral (group 5)): stopped
- reduction in the terminal plasma levels of IL-1i ([4]; 10 mg/kg daily oral (group 5), ELISA): 37%
- decrease in terminal plasma IL-6 [4, 22]: 62%
- rate of progression of the disease and severity of the disease ([4]; daily oral, 0.5, 2 and 10 mg/kg): dose-dependent reduction
- spontaneous production of TNFα [5]: inhibits
- secretion of the inflammatory cytokines (IL-6, IL-1β, TNFα, IP10, GM-CSF, IL-10) and the interferons (IFN11, IFN12/3, IFNβ, IFNg) ([2]; PBMCs, inhibitor 1 h before R848 5 μg/ml (TLR7/8), 24 h): inhibits
- production of inflammatory cytokines (TNFα) [6]: inhibits, according to a dosage effect
- production of interferon induced by the STING ligand [7]: does not block
- intracellular production of interferon IFNα [8]: inhibits
- production of TNFα [8]: inhibits
- expression of the CD69 marker at the surface of the B lymphocytes [9]: inhibits, according to a dosage effect
- viability of the B lymphocytes [9]: without affecting the viability
- toxicity on the peripheral blood mononuclear cells (PBMCs) ([10]; PBMCs infected with HIV): no toxicity
- toxicity on the peripheral blood mononuclear cells (PBMCs) ([10]; stimulation of the TLR4 receptors): no toxicity
- toxicity on the immune cells (PBMCs) ([10]; stimulation of the TLR7/8 receptors): no toxicity
- production of inflammatory cytokines [11]: capable of inhibiting
- intracellular production of inflammatory cytokines (TNFα) [11]: inhibits, according to a dosage effect
- transcription of the genes encoding TNFα, IL6 and MCP1 induced by LPS [12]: does not block
- production of inflammatory cytokines [13]: capable of inhibiting
- production of inflammatory cytokines (TNFα) ([13]; monocytes, inhibitor 1 h before LPS 100 ng/ml (TLR4), 16 h): inhibits, according to a dosage effect
- expression of the CD69 marker at the surface of the T lymphocytes [14]: inhibits, according to a dosage effect
- viability of the T lymphocytes [14]: without affecting the viability
- secretion of interferons ([15]; curative: inhibitor 1 h after R848 (TLR7/8) stimulation, FIG. 15C): blocking
- secretion of interferons ([15]; inhibitor during the R848 (TLR7/8) stimulation, FIG. 15B): blocking
- secretion of interferons ([15]; preventive: inhibitor 1 h before R848 (TLR7/8) stimulation, FIG. 15A): blocking
- concentration from which the production of interferons (IFN) induced by cGAMP is blocked, according to a dosage effect ([16]; THP1-Dual, inhibitor 1 h before cGAMP 3 μg/ml, 24 h): ≥ 1 µM
- viability of the THP1-Dual [16, 23]: without affecting the viability
- concentration from which the production of interferons (IFN) induced by cGAMP is blocked, according to a dosage effect ([17]; PBMCs, inhibitor 1 h before cGAMP 3 μg/ml, 24 h): ≥ 1 µM
- viability of the PBMCs [17, 23]: without affecting the viability
- production of inflammatory cytokines [18]: capable of inhibiting
- intracellular production of IL-1β [18, 24]: inhibits
- production of TNFα [18, 24]: inhibits
- secretion of the inflammatory cytokines (IL-6, IL-1β, TNFα, GM-CSF, IL-10) and the interferons (IFNI⅔, IFNβ, IFNg) [19]: inhibits
- transcription of the genes encoding TNFα, IL6 and MCP1 induced by LPS [20]: does not block
- secretion of the inflammatory cytokines (IL-6, IL-1β, TNFα, P10) and the interferons (IFNα2, IFNβ, IFN11) [21]: inhibits

Structure (SMILES): C[C@@H](N)[C@H]1CC[C@H](C(=O)Nc2ccncc2)CC1 [Y27632]
- level of TNFα in the culture medium [1]: re-establishes
- production and secretion of pro-inflammatory cytokines, such as IL-6, IL-1p and the interferons induced by the TLR7/8 stimulation [2]: inhibits
- production of TNFα induced by the TLR7/8 stimulation [2]: inhibits
- production of inflammatory cytokines [11]: capable of inhibiting
- intracellular production of inflammatory cytokines (TNFα) [11]: inhibits, according to a dosage effect
- production of inflammatory cytokines [13]: capable of inhibiting
- production of inflammatory cytokines [18]: capable of inhibiting

Structure (SMILES): C[C@]12C=CC(=O)C=C1CC[C@@H]1[C@@H]2[C@@H](O)C[C@@]2(C)[C@H]1CC[C@]2(O)C(=O)CO [prednisolone, reference compound]
- reduction in the (overall) severity of the disease at the end of the study ([4]; 10 mg/kg daily oral): 95%
- decrease in plasma IFNγ [4, 22]: 49%
- decrease in plasma TNFα [4, 22]: 54%
- decrease in terminal plasma IL-6 [4, 22]: 70%
- total average arthritis scores (histopathology) ([4]; 10 mg/kg daily oral): lowest
